Here are results for one compound from ChEMBL document CHEMBL5104103 (J Med Chem, 2022).

Test [1] can be described thus: Inhibition of EGF-stimulated AP-1 activation in human ME-180 cells by EGFR-based reporter assay. Format: cell-based. A general note: Reporter assays use an easily measured gene product as a stand-in for the process of interest.
For test [2], the target named is T1, Tyrosine-protein kinase TXK (Homo sapiens) (UniProt P42681).
T1 sequence (whole entry): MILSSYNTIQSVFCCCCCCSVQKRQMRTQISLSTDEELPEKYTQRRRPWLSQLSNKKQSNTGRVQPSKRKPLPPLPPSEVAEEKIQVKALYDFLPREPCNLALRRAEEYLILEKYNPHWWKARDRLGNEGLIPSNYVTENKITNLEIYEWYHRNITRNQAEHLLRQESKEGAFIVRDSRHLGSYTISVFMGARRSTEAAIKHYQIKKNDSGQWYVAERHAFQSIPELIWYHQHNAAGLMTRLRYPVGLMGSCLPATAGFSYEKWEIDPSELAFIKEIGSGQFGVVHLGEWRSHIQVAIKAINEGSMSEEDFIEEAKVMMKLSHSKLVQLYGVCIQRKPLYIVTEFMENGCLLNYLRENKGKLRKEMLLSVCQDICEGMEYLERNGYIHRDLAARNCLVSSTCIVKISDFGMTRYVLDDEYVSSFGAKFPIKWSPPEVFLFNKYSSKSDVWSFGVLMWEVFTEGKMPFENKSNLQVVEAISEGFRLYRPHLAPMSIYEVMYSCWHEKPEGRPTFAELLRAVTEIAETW
Put plainly: Displacement of competitive tracer from RLK (unknown origin) assessed as target occupancy at […] preincubated for 15 mins measured for 1 hr relative to control. The note with it: dose 1.5 µM.

The target in test [3] is Tyrosine-protein kinase Blk (Homo sapiens, UniProt P51451). Put plainly: Displacement of competitive tracer from BLK (unknown origin) assessed as target occupancy at […] preincubated for 15 mins measured for 6 hrs relative to control. The note with it: dose 1.5 µM.
Test [4] addresses D(2) dopamine receptor (Homo sapiens) (UniProt P14416). Put plainly: Displacement of [3H]methyl-spiperone from recombinant human dopamine receptor D2S at 10 uM incubated for 60 mins by radiometric scintillation assay relative to control. On the technique in general: Loss of bound radioactivity is the signal in a displacement assay; it reports binding, not function.
Test [5] addresses T2, Tyrosine-protein kinase ITK/TSK (Homo sapiens) (UniProt Q08881).
T2 sequence (whole entry): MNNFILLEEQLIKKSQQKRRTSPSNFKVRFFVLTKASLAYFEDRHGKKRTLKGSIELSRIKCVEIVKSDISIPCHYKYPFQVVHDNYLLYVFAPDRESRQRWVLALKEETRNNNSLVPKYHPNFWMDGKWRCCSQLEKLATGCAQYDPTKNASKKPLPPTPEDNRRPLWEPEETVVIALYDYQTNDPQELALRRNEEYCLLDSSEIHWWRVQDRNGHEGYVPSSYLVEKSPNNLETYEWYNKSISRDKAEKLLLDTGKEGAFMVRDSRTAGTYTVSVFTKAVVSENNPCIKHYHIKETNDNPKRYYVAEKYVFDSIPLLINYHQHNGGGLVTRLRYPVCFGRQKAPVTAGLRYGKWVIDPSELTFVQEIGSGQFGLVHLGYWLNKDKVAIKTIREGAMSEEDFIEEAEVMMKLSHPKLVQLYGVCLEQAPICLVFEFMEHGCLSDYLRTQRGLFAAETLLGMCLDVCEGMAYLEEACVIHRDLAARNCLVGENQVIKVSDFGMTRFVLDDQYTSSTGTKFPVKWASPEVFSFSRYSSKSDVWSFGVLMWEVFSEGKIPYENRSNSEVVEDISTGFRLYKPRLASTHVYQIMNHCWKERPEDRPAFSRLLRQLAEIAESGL
Put plainly: Displacement of competitive tracer from ITK (unknown origin) assessed as target occupancy at […] preincubated for 15 mins measured for 6 hrs relative to control. The note with it: dose 1.5 µM.

The target of test [6] is T3, Cytoplasmic tyrosine-protein kinase BMX (Homo sapiens) (UniProt P51813).
T3 sequence (whole entry): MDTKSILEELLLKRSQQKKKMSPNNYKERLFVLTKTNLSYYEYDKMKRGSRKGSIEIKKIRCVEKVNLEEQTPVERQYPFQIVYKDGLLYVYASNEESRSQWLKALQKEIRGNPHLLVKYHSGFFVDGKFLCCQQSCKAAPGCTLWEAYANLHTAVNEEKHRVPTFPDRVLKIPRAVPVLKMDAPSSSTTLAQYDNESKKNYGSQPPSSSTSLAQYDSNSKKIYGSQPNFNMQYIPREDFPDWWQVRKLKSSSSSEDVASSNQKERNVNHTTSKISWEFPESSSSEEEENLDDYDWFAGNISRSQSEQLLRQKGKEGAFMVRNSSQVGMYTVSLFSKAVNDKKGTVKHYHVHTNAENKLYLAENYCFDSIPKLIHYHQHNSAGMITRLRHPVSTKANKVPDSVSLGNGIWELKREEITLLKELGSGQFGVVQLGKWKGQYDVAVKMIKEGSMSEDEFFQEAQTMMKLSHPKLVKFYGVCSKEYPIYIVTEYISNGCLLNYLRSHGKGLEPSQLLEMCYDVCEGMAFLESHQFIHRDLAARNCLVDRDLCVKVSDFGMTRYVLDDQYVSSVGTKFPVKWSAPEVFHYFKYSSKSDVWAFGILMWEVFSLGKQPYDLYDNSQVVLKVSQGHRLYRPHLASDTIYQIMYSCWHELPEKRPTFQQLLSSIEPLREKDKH
The test is described as follows: Displacement of competitive tracer from BMX (unknown origin) assessed as target occupancy at […] preincubated for 15 mins measured for 24 hrs relative to control. The note with it: dose 1.5 µM.

In test [7] the target is T4, Tyrosine-protein kinase Tec (Homo sapiens) (UniProt P42680).
T4 sequence (whole entry): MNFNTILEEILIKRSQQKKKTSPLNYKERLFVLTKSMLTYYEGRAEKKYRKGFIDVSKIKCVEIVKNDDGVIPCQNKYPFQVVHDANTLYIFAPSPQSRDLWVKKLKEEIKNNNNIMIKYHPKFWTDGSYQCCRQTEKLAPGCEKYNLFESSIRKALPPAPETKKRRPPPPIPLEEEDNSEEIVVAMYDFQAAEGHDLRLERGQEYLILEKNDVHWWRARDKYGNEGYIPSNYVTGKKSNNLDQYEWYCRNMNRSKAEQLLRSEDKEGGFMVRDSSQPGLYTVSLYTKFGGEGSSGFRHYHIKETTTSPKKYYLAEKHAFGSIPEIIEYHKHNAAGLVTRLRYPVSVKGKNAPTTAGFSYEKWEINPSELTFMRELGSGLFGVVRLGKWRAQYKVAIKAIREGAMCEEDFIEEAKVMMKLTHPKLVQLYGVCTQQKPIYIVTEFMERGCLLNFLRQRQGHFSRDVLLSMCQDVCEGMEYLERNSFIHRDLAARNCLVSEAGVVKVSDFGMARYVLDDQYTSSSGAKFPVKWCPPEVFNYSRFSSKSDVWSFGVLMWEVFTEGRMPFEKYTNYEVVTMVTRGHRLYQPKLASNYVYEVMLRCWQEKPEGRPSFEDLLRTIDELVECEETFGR
Put plainly: Displacement of competitive tracer from TEC (unknown origin) assessed as target occupancy at […] preincubated for 15 mins measured for 24 hrs relative to control. To be noted: dose 1.5 µM.

A short description of test [8]: Inhibition of IL-2 production in TCR-stimulated T-cells in human whole blood. Format: functional, tissue-based. To be noted: T-cell.
For test [9], the target named is T3, Cytoplasmic tyrosine-protein kinase BMX (Homo sapiens). Put plainly: Displacement of competitive tracer from BMX (unknown origin) assessed as target occupancy at […] preincubated for 15 mins measured for 6 hrs relative to control. The note with it: dose 1.5 µM.

Where only a bound is given, the exact number is not on record here.

For orientation: IC50 means the midpoint of a concentration-inhibition curve. A higher IC50 goes with lower potency. A word on the inhibition: it is the relative decrease from the control value, in per cent.

Sequence of D(2) dopamine receptor (Homo sapiens) (P14416 whole entry): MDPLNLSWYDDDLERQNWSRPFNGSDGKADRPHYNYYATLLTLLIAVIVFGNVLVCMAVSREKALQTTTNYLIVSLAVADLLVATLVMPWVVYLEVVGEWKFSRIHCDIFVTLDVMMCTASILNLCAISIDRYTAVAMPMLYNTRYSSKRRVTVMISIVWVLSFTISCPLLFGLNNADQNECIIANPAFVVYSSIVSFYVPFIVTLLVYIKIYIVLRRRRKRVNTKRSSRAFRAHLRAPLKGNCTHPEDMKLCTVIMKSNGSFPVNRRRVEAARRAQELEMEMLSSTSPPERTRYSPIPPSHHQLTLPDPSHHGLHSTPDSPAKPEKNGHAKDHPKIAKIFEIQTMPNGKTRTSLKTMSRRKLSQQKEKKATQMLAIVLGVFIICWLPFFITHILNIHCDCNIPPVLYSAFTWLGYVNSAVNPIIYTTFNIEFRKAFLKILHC
Sequence of Tyrosine-protein kinase Blk (P51451 2-505 limits assumed): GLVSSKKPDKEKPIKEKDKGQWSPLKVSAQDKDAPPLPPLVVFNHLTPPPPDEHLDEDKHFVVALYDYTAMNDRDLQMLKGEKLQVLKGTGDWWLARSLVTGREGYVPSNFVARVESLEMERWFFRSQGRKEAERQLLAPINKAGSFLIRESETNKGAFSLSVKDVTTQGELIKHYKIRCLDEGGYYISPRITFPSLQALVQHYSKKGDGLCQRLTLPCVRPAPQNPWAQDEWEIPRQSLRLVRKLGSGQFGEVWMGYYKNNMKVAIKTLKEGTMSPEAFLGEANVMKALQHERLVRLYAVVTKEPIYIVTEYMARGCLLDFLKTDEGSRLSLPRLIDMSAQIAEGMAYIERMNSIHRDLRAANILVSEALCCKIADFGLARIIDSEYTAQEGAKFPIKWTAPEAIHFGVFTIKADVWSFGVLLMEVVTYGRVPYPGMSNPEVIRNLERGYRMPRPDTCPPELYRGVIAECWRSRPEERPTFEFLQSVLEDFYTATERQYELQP

Consider `CC(C)(C)/C=C(\C#N)C(=O)N1CCC[C@@H](n2nc(-c3ccc(Oc4ccccc4)cc3F)c3c(N)ncnc32)C1` [ATUZABRUTINIB], for which the IC50 in [1] and in test [8] was more than 5 µM each time. Further, the Activity in [2] was 88%; in [3] it was 44%; in test [5] it was 28%; in [6], 69%; in test [7] it was 76%; in test [9], 82%. Further, the inhibition in [4] is more than 50%.
